In PMC10913476, “A high-throughput target-based screening approach for the identification and assessment of Mycobacterium tuberculosis mycothione reductase inhibitors” (Microbiology Spectrum, 2024):
≈ marks a conversion by molar mass, not a printed value. Like-named read-outs stand apart in the source and are kept apart here.

What was measured:
[1] = RAW264.7 cytotoxicity (CellTiter-Glo); format: cell-based, murine; settings: mouse, RAW264.7 macrophage-like cells
Description: The RAW264.7 cell line was cultured in DMEM supplemented with 10% FBS, 2-mM L-glutamine, 100-U/mL penicillin and 100-µg/mL streptomycin at 37°C and 5% CO2. Cells were seeded on black, clear-bottom 96-well plates at 2.5 × 10^5 cells/mL. Test compounds and reference compounds (BDQ and tamoxifen) were added in nine twofold serial dilutions in 100% DMSO with a top concentration of 25 µM. The plate setup included high (no growth inhibition) and low (100% growth inhibition) controls in columns 12 and 1, respectively. Medium without cell suspension was added to the low control wells. Final DMSO concentration reached 1% for test and control wells. Plates were incubated for 60 hours at 37°C and 5% CO2. Before adding the readout reagent, plates were equilibrated at room temperature for 30 min. The CellTiter-Glo version 2.0 Assay (Promega, cat. #G7572) was then added to test wells in a 1:1 ratio and mixed for 2 min on an orbital shaker. The plate was incubated for 10 min at RT to stabilize the luminescent signal. The luminescence was recorded using Glomax Discover microplate reader (Promega). Cell viability was determined by normalization of the recorded signal and establishment of the 50% cytotoxicity concentration based on the non-linear regression curve analysis (GraphPad Prism version 9). The assay was performed in duplicate in two independent experiments.

[2] = tested on: Mtb H37Ra^lux; test: microbe, parasite or virus in culture; format: cell-based, Mycobacterium tuberculosis; settings: for MIC50: Mycobacterium tuberculosis, H37RA
[3] = tested on: Mtb H37Ra^lux in RAW264.7 murine macrophages; test: microbe, parasite or virus in culture; format: cell-based, Mycobacterium tuberculosis; settings: for MIC50: Mycobacterium tuberculosis, H37RA, 60 h
[4] = molecular target: Mycobacterium tuberculosis mycothione reductase (MtrMtb) (Mycobacterium tuberculosis, UniProt P9WHH3); test: MtrMtb luminescence-coupled enzymatic assay, confirmation screen (11-point dose-response); format: biochemical
[5] = sulfonylamine series, fragment molecules, reference compounds
[6] = read-out: MIC50 (µM) Mtb H37Ra^lux
[7] = read-out: RAW264.7 MIC50 (µM) (Mtb H37Ra^lux)
[8] = sulfonylamine series, fragment molecules, reference compounds, read-out: IC50 (µM) MtrMtb
[9] = read-out: RAW264.7 MIC50 (Mtb H37Ra^lux)
[10] = morpholine series, acute cellular toxicity, unit not in this head
[11] = read-out: MIC50 (Mtb H37Ra^lux)
[12] = morpholine series, average IC50 in the confirmation screen (dose-response), unit not in this head, µM, read-out: qIC50 (MtrMtb)

Chain of Mycobacterium tuberculosis mycothione reductase (MtrMtb) (P9WHH3 whole entry, the tested form may be a part): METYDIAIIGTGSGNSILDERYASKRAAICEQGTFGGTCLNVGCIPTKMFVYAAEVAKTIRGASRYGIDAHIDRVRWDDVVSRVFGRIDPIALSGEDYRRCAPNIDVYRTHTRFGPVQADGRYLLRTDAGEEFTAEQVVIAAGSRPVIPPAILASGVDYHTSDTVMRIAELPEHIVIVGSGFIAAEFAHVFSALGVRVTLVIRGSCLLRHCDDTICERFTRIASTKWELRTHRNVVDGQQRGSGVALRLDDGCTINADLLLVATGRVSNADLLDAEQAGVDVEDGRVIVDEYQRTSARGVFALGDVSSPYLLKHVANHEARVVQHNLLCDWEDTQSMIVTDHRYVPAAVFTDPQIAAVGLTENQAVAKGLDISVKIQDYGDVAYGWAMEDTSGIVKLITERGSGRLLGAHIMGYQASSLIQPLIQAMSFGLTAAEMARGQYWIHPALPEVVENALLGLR

| SMILES | CC50 at 60 h [1, 5] [µM] | MIC50 [2, 6] [µM] | MIC50 [3, 7] [µM] | IC50 [4, 8] [µM] | MIC50 [3, 9] [µM] | CC50 at 60 h [1, 10] [µM] | MIC50 [2, 11] [µM] | intracellular activity in macrophage infection assay, in words [3] | anti-mycobacterial activity in whole-cell assay (Mtb H37Ra^lux MIC50), in words [2] | IC50 [4, 12] [µM] |
| --- | --- | --- | --- | --- | --- | --- | --- | --- | --- | --- |
| COc1nc2ccc(Br)cc2cc1[C@@H](c1ccccc1)[C@@](O)(CCN(C)C)c1cccc2ccccc12 [Bedaquiline, reference compound] | > 50 | 0.01 (≈ 0.00556 µg/mL) |  |  |  |  |  |  |  |  |
| CCNc1cc(Oc2ccc(NS(=O)(=O)c3ccc(C)cc3)c(C(=O)O)c2)ccc1NS(=O)(=O)c1ccc(C)cc1 [Respiri-1031] |  | > 25 | > 25 | 2.16 |  |  |  |  |  |  |
| CNc1cc(Oc2ccc(NS(=O)(=O)c3ccc(C)cc3)c(C(=O)O)c2)ccc1NS(=O)(=O)c1ccc(C)cc1 [Respiri-1075] |  | > 25 | > 25 |  |  |  |  |  |  |  |
| COc1cccc(-c2nc(N3CCOC[C@@H]3C)nc3c2CCNCC3)c1 [Respiri-1076] |  |  |  |  | > 25 | > 25 | > 25 |  |  |  |
| C[C@H]1COCCN1c1nc2c(c(-c3ccc(F)cc3)n1)CCNCC2 [Respiri-1077] |  |  |  |  | > 25 | > 25 | > 25 |  |  |  |
| C[C@H]1COCCN1c1nc2c(c(-c3ccc(Cl)cc3)n1)CCNCC2 [Respiri-1078] |  |  |  |  | 14.1 (≈ 5.05 µg/mL) | 13.7 | 11.9 (≈ 4.26 µg/mL) | Intracellular activity was detected | activity | 4.47 |
| C[C@H]1COCCN1c1nc2c(c(-c3cc4ccccc4o3)n1)CCNCC2 [Respiri-1079] |  |  |  |  | 12.2 (≈ 4.44 µg/mL) | 11 | 5.7 (≈ 2.08 µg/mL) | Intracellular activity was detected | activity | 1.99 |
| C[C@H]1COCCN1c1nc2c(c(-c3ccc4c(c3)OCO4)n1)CCNCC2 [Respiri-1080] |  |  |  |  | > 25 | > 5 | > 25 |  |  | 5.98 |
| C[C@H]1COCCN1c1nc2c(c(-c3ccc4ncccc4c3)n1)CCNCC2 [Respiri-1081] |  |  |  |  | > 25 | > 25 | > 25 |  |  | 3.75 |
| C[C@H]1COCCN1c1nc2c(c(-c3ccc4ccccc4c3)n1)CCNCC2 [Respiri-1082] |  |  |  |  | 7.16 (≈ 2.68 µg/mL) | 9.69 | 4.02 (≈ 1.51 µg/mL) | Intracellular activity was detected | activity | 3.03 |
| C[C@H]1COCCN1c1nc2c(c(-c3ccnc4ccccc34)n1)CCNCC2 [Respiri-1083] |  |  |  |  | > 25 | > 25 | > 25 |  |  | 2.34 |
| C[C@H]1COCCN1c1cc(-c2cc3ccccc3s2)c2c(n1)CCNCC2 [Respiri-1084] |  |  |  |  | 10.2 (≈ 3.88 µg/mL) | 11.9 | > 25 | Intracellular activity was detected |  | 2.88 |
| C[C@H]1COCCN1c1nc2c(c(-c3csc4ccccc34)n1)CCNCC2 [Respiri-1093] |  |  |  |  | > 25 | > 25 | 9.94 (≈ 3.78 µg/mL) |  | activity | 6.22 |
| CCCNc1cc(Oc2ccc(NS(=O)(=O)c3ccc(C)cc3)c(C(=O)O)c2)ccc1NS(=O)(=O)c1ccc(C)cc1 [Respiri-1179] | > 50 | > 25 | > 25 | 1.13 |  |  |  |  |  |  |
| CCN(CC)c1cc(Oc2ccc(NS(=O)(=O)c3ccc(C)cc3)c(C(=O)O)c2)ccc1NS(=O)(=O)c1ccc(C)cc1 [Respiri-1180] | > 50 | > 25 |  | 2.38 |  |  |  |  |  |  |
| CCCCNc1cc(Oc2ccc(NS(=O)(=O)c3ccc(C)cc3)c(C(=O)O)c2)ccc1NS(=O)(=O)c1ccc(C)cc1 [Respiri-1181] | > 50 | > 25 | > 25 | 1.66 |  |  |  |  |  |  |
| O=C1C=CC(=O)N1Cc1ccc2c(c1)OCO2 [Respiri-1208] | 15.2 | > 25 |  | 4.83 |  |  |  |  |  |  |
| CN1C(=O)C2N=CNC2N(C)C1=O (centres unmarked) [Respiri-1209] | > 50 | > 25 | > 25 | 5.63 |  |  |  |  |  |  |
| Cn1ccnc1C(=O)c1nccn1C [Respiri-1210] | > 50 | > 25 | > 25 | 6.11 |  |  |  |  |  |  |
| Cc1ccn(-c2ncccn2)c(=O)c1C#N [Respiri-1211] | > 50 | > 25 | > 25 | 13 |  |  |  |  |  |  |
| CC/C(=C(\c1ccccc1)c1ccc(OCCN(C)C)cc1)c1ccccc1 [Tamoxifen, reference compound] | 4.54 |  |  |  |  |  |  |  |  |  |
